Legend:
neointima formation = conditions: rats; cited from earlier work
CDK7/cyclinH/MAT1 = molecular target: T1, CDK7/cyclinH/MAT1 (Homo sapiens, UniProt P50613); experiment: CDK7/cyclinH/Mat1 kinase assay, IMAP fluorescence polarization; assay type: biochemical
T1 construct: purchased Millipore
Protocol: Kinase assays were performed on recombinant purified enzymes using the non-radioactive IMAP fluorescence polarization assay format.
Compound stocks were prepared and diluted in DMSO and were added to kinase reactions at a 1/100 dilution for a final concentration of 1% DMSO. The components were added together to final concentrations listed in the tables below and incubated for two hours at room temperature.
The reactions were stopped by addition of stop solution.
CDK9/CDK1/CDK7: final stop concentration is 1× Developer buffer (85% A/15% B), IMAP beads 1/400
The samples were allowed to incubate for one more hour at room temperature and then the fluorescence polarization was measured. The plate normalized millipolarization (mP) values were plotted against the log of compound concentration for each compound and IC50 values were calculated using the spotfire IC50 calculator and confirmed by visual analysis.

CDK4 = CDK4 (Homo sapiens, UniProt P11802); experiment: CDK4 kinase assay (Table F); assay type: biochemical
CDK4, sequence (P11802 whole entry, species assumed): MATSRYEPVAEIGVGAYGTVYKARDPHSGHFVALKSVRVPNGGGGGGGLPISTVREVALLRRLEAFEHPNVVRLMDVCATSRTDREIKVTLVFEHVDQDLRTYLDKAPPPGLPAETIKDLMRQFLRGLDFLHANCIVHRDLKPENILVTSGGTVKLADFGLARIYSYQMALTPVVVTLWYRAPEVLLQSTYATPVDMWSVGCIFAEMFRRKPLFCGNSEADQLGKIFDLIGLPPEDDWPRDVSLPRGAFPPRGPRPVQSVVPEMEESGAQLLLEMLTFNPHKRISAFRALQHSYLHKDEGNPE
CDK4, sequence (P24385 whole entry partner, species assumed): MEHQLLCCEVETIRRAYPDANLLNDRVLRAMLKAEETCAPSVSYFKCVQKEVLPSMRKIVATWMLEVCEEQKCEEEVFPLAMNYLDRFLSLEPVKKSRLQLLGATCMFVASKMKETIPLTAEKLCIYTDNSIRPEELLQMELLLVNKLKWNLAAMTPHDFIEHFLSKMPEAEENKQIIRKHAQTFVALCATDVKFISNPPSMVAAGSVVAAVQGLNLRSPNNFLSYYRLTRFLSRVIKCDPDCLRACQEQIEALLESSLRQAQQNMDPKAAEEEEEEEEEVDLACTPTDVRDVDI

CDK9/cyclinT1 = molecular target: T2, CDK9/cyclinT1 (Homo sapiens, UniProt P50750); experiment: CDK9/cyclinT1 kinase assay, IMAP fluorescence polarization; assay type: biochemical
T2 construct: purchased Millipore
T2 sequence (P50750 whole entry): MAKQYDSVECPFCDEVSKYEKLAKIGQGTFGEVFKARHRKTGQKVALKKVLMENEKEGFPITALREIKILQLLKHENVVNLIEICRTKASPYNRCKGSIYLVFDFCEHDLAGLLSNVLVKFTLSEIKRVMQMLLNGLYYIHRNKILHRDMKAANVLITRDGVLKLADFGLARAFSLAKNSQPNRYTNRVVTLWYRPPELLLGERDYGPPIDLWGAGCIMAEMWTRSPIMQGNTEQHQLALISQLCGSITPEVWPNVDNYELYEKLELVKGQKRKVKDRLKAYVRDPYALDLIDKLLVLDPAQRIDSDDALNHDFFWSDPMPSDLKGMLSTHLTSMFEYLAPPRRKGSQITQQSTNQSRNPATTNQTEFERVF
T2 sequence (O60563 whole entry partner): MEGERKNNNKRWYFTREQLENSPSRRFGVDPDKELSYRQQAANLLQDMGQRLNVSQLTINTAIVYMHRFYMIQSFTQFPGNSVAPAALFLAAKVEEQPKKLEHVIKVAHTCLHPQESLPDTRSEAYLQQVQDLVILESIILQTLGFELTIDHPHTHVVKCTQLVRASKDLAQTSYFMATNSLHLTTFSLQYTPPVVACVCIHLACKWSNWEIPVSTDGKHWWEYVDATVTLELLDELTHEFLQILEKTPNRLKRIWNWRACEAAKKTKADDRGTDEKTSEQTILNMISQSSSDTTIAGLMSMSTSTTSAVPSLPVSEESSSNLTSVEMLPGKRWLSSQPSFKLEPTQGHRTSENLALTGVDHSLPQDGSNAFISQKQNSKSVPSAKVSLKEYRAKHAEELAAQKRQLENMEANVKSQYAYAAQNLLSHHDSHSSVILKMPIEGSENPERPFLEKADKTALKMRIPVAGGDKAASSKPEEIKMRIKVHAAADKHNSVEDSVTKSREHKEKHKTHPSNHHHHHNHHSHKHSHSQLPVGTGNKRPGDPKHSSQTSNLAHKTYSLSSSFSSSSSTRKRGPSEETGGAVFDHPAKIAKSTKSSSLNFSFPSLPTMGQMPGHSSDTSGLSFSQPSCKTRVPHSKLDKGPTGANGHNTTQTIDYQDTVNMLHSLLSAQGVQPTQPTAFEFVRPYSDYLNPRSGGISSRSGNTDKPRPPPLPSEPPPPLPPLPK
Summary of the method: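 Recombinant purified enzyme complexes assayed by IMAP fluorescence polarization with 1% final DMSO, 2 h at room temperature; stopped with 1× Developer buffer (85% A/15% B) plus IMAP beads 1/400, then 1 h further at room temperature. IC50 from normalized mP versus log compound concentration.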

CDK5 = CDK5 (Homo sapiens, UniProt Q00535); experiment: CDK5 kinase assay (Table F); assay type: biochemical
CDK5, sequence (Q00535 whole entry, species assumed): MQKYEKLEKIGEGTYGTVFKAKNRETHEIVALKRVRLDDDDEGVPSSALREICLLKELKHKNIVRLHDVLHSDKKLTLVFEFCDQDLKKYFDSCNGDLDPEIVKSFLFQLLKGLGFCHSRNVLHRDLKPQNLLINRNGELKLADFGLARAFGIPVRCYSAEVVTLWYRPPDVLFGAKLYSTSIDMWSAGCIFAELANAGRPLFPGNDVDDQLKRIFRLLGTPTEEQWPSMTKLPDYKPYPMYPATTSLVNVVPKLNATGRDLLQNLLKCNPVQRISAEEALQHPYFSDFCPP
CDK5, sequence (Q15078 whole entry partner, species assumed): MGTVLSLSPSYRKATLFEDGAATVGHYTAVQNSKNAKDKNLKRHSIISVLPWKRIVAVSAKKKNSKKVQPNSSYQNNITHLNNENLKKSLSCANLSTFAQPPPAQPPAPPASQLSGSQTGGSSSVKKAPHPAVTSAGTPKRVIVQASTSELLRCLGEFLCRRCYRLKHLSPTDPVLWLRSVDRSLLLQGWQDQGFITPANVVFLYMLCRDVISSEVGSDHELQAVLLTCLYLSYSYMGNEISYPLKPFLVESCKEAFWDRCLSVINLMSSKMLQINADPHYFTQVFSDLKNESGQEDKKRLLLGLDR

CDK2/cyclinA = molecular target: T3, CDK2/cyclinA (Homo sapiens, UniProt P24941); experiment: CDK2/cyclinA kinase assay, IMAP fluorescence polarization; assay type: biochemical
T3 construct: purchased Millipore
Summary of the method: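 Recombinant purified enzyme reactions run 2 hours at room temperature with 1% DMSO final. Stopped with 1× Developer buffer (100% A) and IMAP beads 1/400, then 1 hour more before fluorescence polarization read. IC50 from mP values versus log concentration.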

CDK1/cyclinB = molecular target: T4, CDK1/cyclinB (Homo sapiens, UniProt P06493); experiment: CDK1/cyclinB kinase assay, IMAP fluorescence polarization; assay type: biochemical; conditions: read-out: CDK1 IC50
T4 construct: purchased Millipore
T4 sequence (P06493 whole entry): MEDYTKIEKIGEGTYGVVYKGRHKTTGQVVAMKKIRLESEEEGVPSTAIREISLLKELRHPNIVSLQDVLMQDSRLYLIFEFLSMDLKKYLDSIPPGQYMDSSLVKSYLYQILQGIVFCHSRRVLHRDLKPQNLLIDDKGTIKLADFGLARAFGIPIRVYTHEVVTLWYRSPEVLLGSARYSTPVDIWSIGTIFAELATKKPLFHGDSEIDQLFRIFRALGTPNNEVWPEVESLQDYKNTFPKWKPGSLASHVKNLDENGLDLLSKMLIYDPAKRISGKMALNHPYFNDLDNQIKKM
T4 sequence (P14635 whole entry partner): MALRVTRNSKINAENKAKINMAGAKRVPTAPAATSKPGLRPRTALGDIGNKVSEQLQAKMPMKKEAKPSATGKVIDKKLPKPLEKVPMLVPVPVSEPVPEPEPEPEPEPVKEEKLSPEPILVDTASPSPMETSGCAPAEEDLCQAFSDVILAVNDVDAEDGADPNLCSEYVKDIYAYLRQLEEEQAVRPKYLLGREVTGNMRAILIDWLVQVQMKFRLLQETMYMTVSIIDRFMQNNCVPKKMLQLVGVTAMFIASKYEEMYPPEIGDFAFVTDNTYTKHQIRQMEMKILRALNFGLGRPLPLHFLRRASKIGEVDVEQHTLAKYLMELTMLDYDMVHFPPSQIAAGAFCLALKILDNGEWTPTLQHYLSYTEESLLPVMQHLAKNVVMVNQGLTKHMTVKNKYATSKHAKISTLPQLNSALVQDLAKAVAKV
Summary of the method: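 IMAP fluorescence polarization assay on recombinant purified enzyme, compounds at final 1% DMSO. Reaction run 2 h at room temperature, stopped, held 1 h more before reading polarization.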

[1] = test system: RNA Polymerase II CTD Serine2 Phosphorylation; experiment: H5 (Ser2) Ab High Content Screen: RNA Polymerase II CTD Serine2 Phosphorylation Assay in Hep3B cells; assay type: cell-based; conditions: Homo sapiens, 2 hours with compound, H5 antibody staining
Protocol: H5 (also referred as Ser2) Ab High Content Screen: RNA Polymerase II CTD Serine2 Phosphorylation Assay
1. Cells are plated into 384 well plates: 30 μl of Hep3B cells (4,000 cells/30 μl) in DMEM with 3% FBS are plated into wells of a tissue culture treated clear bottomed 384 well plate. Cells are allowed to adhere during an overnight incubation.
2. Cells are treated with compounds for two hours: 10 μl of DMEM with 3% FBS is added to each well with a final concentration of DMSO equal to 1%. Cells are incubated with compounds for 2 hours.
3. Cells are fixed and permeabilized. Cells are washed with 30 mM HEPES pH=7.3 then fixed in 4% paraformaldehyde in 30 mM HEPES pH=7.3 for one hour at room temperature. The fix is removed by washing the cells with Tris buffered saline (TBS) and the cells are permeabilized by incubation in TBS with 0.5% triton X-100 for 30 minutes at room temperature. Triton is removed by washing the cells with TBS.
4. […] Incubate primary H5 Ab (1/250 ) overnight at 4 degrees in TBS with 1% BSA and 0.1% Tween-20. The next day wash cells with TBS. […] Wash cells with PBS.
5. Measure staining using the In-cell Analyzer system from GE Healthcare.

T1 sequence (P50613 whole entry): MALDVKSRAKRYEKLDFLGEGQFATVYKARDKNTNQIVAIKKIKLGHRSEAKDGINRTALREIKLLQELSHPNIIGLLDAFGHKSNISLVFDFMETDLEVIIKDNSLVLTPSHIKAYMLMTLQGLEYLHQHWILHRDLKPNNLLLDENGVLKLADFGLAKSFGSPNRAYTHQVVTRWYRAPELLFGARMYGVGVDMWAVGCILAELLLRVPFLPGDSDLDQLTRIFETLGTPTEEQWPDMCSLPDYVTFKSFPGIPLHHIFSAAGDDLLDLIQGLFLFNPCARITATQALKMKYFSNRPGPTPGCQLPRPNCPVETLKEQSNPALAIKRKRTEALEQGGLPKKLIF
T1 sequence (P51946 whole entry partner): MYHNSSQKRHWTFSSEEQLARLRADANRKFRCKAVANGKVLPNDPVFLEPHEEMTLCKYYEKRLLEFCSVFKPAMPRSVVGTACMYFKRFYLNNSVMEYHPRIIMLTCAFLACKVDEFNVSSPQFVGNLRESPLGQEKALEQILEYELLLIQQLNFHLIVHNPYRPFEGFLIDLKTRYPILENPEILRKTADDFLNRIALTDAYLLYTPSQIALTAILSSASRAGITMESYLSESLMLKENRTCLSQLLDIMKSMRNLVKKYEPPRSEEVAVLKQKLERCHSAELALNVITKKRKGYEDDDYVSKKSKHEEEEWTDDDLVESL
T1 sequence (P51948 whole entry partner): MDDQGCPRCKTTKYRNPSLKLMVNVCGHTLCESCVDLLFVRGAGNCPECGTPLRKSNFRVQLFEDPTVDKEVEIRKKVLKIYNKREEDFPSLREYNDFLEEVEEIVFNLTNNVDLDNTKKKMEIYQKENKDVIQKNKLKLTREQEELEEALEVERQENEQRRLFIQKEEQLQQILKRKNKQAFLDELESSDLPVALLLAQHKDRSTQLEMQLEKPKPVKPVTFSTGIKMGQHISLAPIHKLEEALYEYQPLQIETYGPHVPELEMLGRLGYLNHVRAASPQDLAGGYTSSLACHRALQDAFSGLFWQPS

SMILES	inhibition of neointima formation (neointima formation)	IC50 (CDK7/cyclinH/MAT1) [µM]	IC50 (CDK4) [µM]	IC50 (CDK9/cyclinT1) [µM]	IC50 (CDK5) [µM]	IC50 (CDK2/cyclinA) [µM]	IC50 (CDK1/cyclinB) [µM]	IC50 [1] [µM]
COc1ccc(CNc2nc(N(CCO)CCO)nc3c2ncn3C(C)C)cc1 [CVT-313]	greater than 80%	–	–	–	–	–	–	–
COc1ccc(-c2ccnc(Nc3cccc(S(C)(=O)=O)c3)n2)c(OC)n1 [Compound 119, [4-(2,6-Dimethoxy-pyridin-3-yl)-pyrimidin-2-yl]-(3-methanesulfonyl-phenyl)-amine]	–	> 50	15 to 50	< 5	5 to 15	< 5	< 5	> 50
N#Cc1cccc(Nc2nccc(-c3cccnc3NCCCN)n2)c1 [Compound 60, 3-{4-[2-(3-Amino-propylamino)-pyridin-3-yl]-pyrimidin-2-ylamino}-benzonitrile]	–	< 5	< 5	< 5	< 5	< 5	< 5	< 5
COc1cnccc1-c1ccnc(Nc2cccc(S(C)(=O)=O)c2)n1 [Compound 46, (3-Methanesulfonyl-phenyl)-[4-(3-methoxy-pyridin-4-yl)-pyrimidin-2-yl]-amine]	–	< 5	5 to 15	< 5	< 5	< 5	< 5	< 5
